Here are results for two compounds from patent US20140274919A1, “BORON-CONTAINING COMPOSITIONS AND METHODS THEREFOR” (VDF FutureCeuticals, Inc., priority 2011, published 2014).

Type in all cases: in vivo
The test system of experiment [1] is under-carboxylated osteocalcin. The experiment can be described thus: Oral administration to human volunteers: under-carboxylated osteocalcin in blood (Cusabio immunoassay). The following applies: single daily doses of 5-50 mg, samples after 7 and 14 days vs day 0, FIG. 1. Here is the method:
In this instance the effect of administration of a CFB on the concentration of under-carboxylated osteocalcin in the blood of human volunteers, along with the effect of administration of sodium borate (Na borate) and a placebo compound was measured. Blood samples were taken at day 0 prior to administration in order to establish a baseline concentration for each individual. Additional samples were taken after 7 and 14 days of treatment. Under-carboxylated osteocalcin was characterized using a commercially available immunoassay from Cusabio Biotech Co. LTD (Newark, Del.) according to the manufacturer's directions, and the percentage change from pretreatment concentrations of under-carboxylated osteocalcin were calculated. […] In some embodiments of the inventive subject matter the percentage of under-carboxylated osteocalcin (including non-carboxylated osteocalcin) may thus be reduced by about 1%, 2%, 3%, 4%, 5%, 10%, 15%, 20%, 25%, 30%, 35%, 40%, 45%, 50% or more relative to pretreatment values following oral administration of CFB.
(§1) In all of the above oral administrations, the human volunteers were provided with orally administered single daily doses of 5-50 mg of calcium fructoborate for at least 14 days. […]

Experiment [2] has as its system YKL-40. The experiment can be described thus: Oral administration to human volunteers: YKL-40 in blood (Quidel immunoassay). The following applies: samples after 7 and 14 days vs Day 0, FIG. 3. How it is done: In all of the above oral administrations, the human volunteers were provided with orally administered single daily doses of 5-50 mg of calcium fructoborate for at least 14 days. However, it should be noted that the orally administered compositions may vary considerably, so long as at least 0.1 mg, more typically at least 1.0 mg, and most typically at least 10-100 mg of the compound are administered to the human (or other mammal). Thus, typical administrations will provide 0.001-0.01 mg/kg, more typically 0.01-0.1 mg/kg, and most typically 0.1-5.0 mg/kg (and in some cases even higher) of the boro-carbohydrate compound per day. […]
In this instance the effect of the administration of CFB on the concentration of YKL-40 in the blood of human volunteers, along with the effect of administration of sodium borate (Na borate) and a placebo compound, was measured. […]
Additional samples were taken after 7 and 14 days of treatment, and the concentration of YKL-40 compared to the baseline level determined for each individual. YKL-40 was characterized using a commercially available immunoassay from Quidel (San Diego, Calif.) according to the manufacturer's directions, and the percentage change from pretreatment concentrations of YKL-40 were calculated. […]

The subject of experiment [3] is C-reactive protein (CRP). Nature of the experiment: Oral administration to human volunteers: circulating C-reactive protein. The following applies: FIG. 4. How it is done:
In all of the above oral administrations, the human volunteers were provided with orally administered single daily doses of 5-50 mg of calcium fructoborate for at least 14 days. However, it should be noted that the orally administered compositions may vary considerably, so long as at least 0.1 mg, more typically at least 1.0 mg, and most typically at least 10-100 mg of the compound are administered to the human (or other mammal). Thus, typical administrations will provide 0.001-0.01 mg/kg, more typically 0.01-0.1 mg/kg, and most typically 0.1-5.0 mg/kg (and in some cases even higher) of the boro-carbohydrate compound per day. Such administration may be performed in numerous formats, and all types of formulations comprising contemplated compounds are deemed suitable for use herein, including as nutritional supplement, as ingredient in a snack (e.g., energy bar, fruit leather, etc.), a cereal, a beverage, etc.
Additionally, it is contemplated that compounds and compositions according to the inventive subject matter may influence various parameters associated with an inflammatory response, as YKL-40 has been proposed as a diagnostic marker for inflammation. […] Thus, it should be appreciated that contemplated compositions are especially advantageous in reduction of inflammatory markers and conditions associated with increased levels of such markers.

Experiment [4] has as its system total osteocalcin. The experiment can be described thus: Oral administration to human volunteers: total osteocalcin in blood. The following applies: data not shown.
The subject of experiment [5] is adiponectin. Nature of the experiment: Oral administration to human volunteers: blood concentration of adiponectin. The following applies: samples at 30 minute intervals vs time 0, FIG. 2. How it is done:
In this instance the effect of oral administration of CFB on the blood concentration of adiponectin, along with the effect of administration of sodium borate (Na borate), and a placebo compound was measured. Blood samples were taken at a time 0 prior to administration in order to establish a baseline concentration for each individual. Additional samples were taken at 30 minute intervals, and the concentration of adiponectin compared to the baseline level determined for each individual. […] The mechanism for this increase in adiponectin concentration in the blood is not known, but it is contemplated that it may due to increased synthesis, increased release of stored adiponectin, or a combination of these. Therefore, in some embodiments of the inventive subject matter blood concentrations of adiponectin may be increased by about 1%, 2%, 3%, 4%, 5%, 10%, 15%, 20%, 25%, 30%, or more relative to pretreatment values following administration of a boro-carbohydrate complex.
as §1

For calcium fructoborate [CFB], the “concentration of under-carboxylated osteocalcin in blood, percentage change from pretreatment” value in experiment [1] is reported as “significant reduction”. In addition, in experiment [2], the “concentration of YKL-40 in blood, percentage change from pretreatment” value is “significant reduction”. Moreover, in experiment [3], the “concentration of circulating CRP” value is listed as “substantially greater effect on reducing the concentration of CRP than sodium borate”. In experiment [4], the “effect on total osteocalcin” value was “no discernable effect”. In experiment [5], the “blood concentration of adiponectin compared to baseline” value is “rapid and sustained increase”.

Regarding `O.O.O.O.O.O.O.O.O.O.[Na+].[Na+].[O-]B1OB2OB([O-])OB(O1)O2` [sodium borate, reference compound], the “blood concentration of adiponectin compared to baseline” value in experiment [5] is listed as “similar, but markedly reduced, effect”.
